Test results reported in patent publication US20110251286A1, “Crystalline salts and/or co-crystals of O-desmethyltramadol” (GRUENENTHAL GmbH, priority 2010, published 2011).

Tests used:
[1] = Release in artificial intestinal juice; format: physicochemical; settings: for Release in artificial intestinal juice, percent of the substance released: permeable bag, amount calculated on 100 mg free base
Description: Investigations on release were carried out in a Sotax AT7 smart release apparatus with UV measurement (Perkin Elmer photometer).
A vessel with Wood apparatus was used (for intrinsic release).
A pressing of 0.5 cm^2 surface area (diameter 8 mm) was produced with a force of 200 N using approximately 100 mg of active ingredient.
Release was carried out in a release medium, which is composed as described below: • Intestinal juice without pancreas powder, pH 6.8 (analogous to Ph. Eur.); 250.0 ml 6.8 g of potassium dihydrogenphosphate R+0.896 g of NaOH+water to 1000.0 ml.
Release was carried out in a release volume of in each case 500±5 ml at a temperature of the release medium of 37±1° C. with a stirring speed of 100±5 rpm.
The content determination was carried out by means of spectroscopic methods (UV spectroscopy, wavelength: 271 nm, cuvette: 10 mm). Sample taking was carried out manually.
In this release experiment, the individual compounds were placed in a permeable bag in an amount in each case calculated on 100 mg of the free base.
The results, expressed in percent of the substance released, are reproduced in the following tables. In this case, the compounds denote: HCl: hydrochloride; A: cinnamate; B: palmitate; C: decanoate; E: hemi-fumarate and F: hemi-sebacate.

[2] = Dynamic vapor sorption (DVS): sorption and desorption of moisture; format: physicochemical
Description: Investigations on the sorption and desorption of moisture (dynamic vapor sorption, DVS): DVS measurements were carried out on an apparatus of the type DVS 1000 from Porotec. The evaluation of the measurements was carried out using software from Surface Measurement Systems. At a temperature between 23° C. and 26° C., starting from a relative humidity of 50%, within 240 minutes the relative humidity first increased to 90% and then fell to 0%. This cycle was repeated a second time. The DVS charts shown are isothermal recordings (plots) of the change in the mass in % (change in mass—dry) as a function of the desired relative humidity in % (target RH). Correspondingly, the axes of the graphs are marked by ΔM [%] and RH [%]. The measurement curves of the first sorption are designated by 1-S, the subsequent first desorption by 1-D, the second sorption by 2-S and the second desorption by 2-D. Advantageously, mass changes between the sorption and desorption phase are as low as possible.

Which “Release in artificial intestinal juice, percent of the substance released” value (from here on “Release … percent of the substance released”) ([1]; t 2 min) does the source give for `CCCCCCCCCC(=O)O.CN(C)CC1CCCCC1(O)c1cccc(O)c1` (centres unmarked) [C-2] here?
Its value is 92.62%.

What about the “Release … percent of the substance released” value ([1]; t 4 min) of the same compound?
The value was 99.12%.

What about the “Release … percent of the substance released” value ([1]; t 6 min) of the same compound?
Its value is 99.74%.

What about the “Release … percent of the substance released” value ([1]; t 8 min) of the same compound?
The value was 99.73%.

And the “Release … percent of the substance released” value ([1]; t 10 min)?
Its value is 99.55%.

What about the “Release … percent of the substance released” value ([1]; t 12 min) of the same compound?
Its value is 99.73%.

And the “Release … percent of the substance released” value ([1]; t 15 min)?
Its value is 99.56%.

What about the “Release … percent of the substance released” value ([1]; t 30 min) of the same compound?
The value was 99.77%.

With `CN(C)C[C@H]1CCCC[C@]1(O)c1cccc(O)c1.Cl` [HCl-2] as the compound, how does the “Release … percent of the substance released” value ([1]; t 2 min) read?
Its value is 97.72%.

What about the “Release … percent of the substance released” value ([1]; t 4 min) of the same compound?
Its value is 98.52%.

What about the “Release … percent of the substance released” value ([1]; t 6 min) of the same compound?
Its value is 100.41%.

And the “Release … percent of the substance released” value ([1]; t 8 min)?
Its value is 98.83%.

And the “Release … percent of the substance released” value ([1]; t 10 min)?
Its value is 100.29%.

What about the “Release … percent of the substance released” value ([1]; t 12 min) of the same compound?
The value was 98.70%.

And the “Release … percent of the substance released” value ([1]; t 15 min)?
The value was 100.05%.

What about the “Release … percent of the substance released” value ([1]; t 30 min) of the same compound?
The value was 99.96%.

With `CCCCCCCCCC(=O)O.CN(C)CC1CCCCC1(O)c1cccc(O)c1` (centres unmarked) [decanoate] as the compound, how does the “release rate compared to the hydrochloride salt” value ([1]; in artificial intestinal juice) read?
The value was “decreased release rates compared to the hydrochloride salt”.

With `CN(C)CC1CCCCC1(O)c1cccc(O)c1.O=C(O)C=Cc1ccccc1` (centres unmarked) [A-1] as the compound, how does the “Release … percent of the substance released” value ([1]; t 2 min) read?
The value was 58.49%.

And the “Release … percent of the substance released” value ([1]; t 4 min)?
The value was 74.11%.

And the “Release … percent of the substance released” value ([1]; t 6 min)?
The value was 84.48%.

What about the “Release … percent of the substance released” value ([1]; t 8 min) of the same compound?
The value was 91.49%.

What about the “Release … percent of the substance released” value ([1]; t 10 min) of the same compound?
The value was 92.24%.

What about the “Release … percent of the substance released” value ([1]; t 12 min) of the same compound?
Its value is 96.63%.

What about the “Release … percent of the substance released” value ([1]; t 15 min) of the same compound?
The value was 97.34%.

And the “Release … percent of the substance released” value ([1]; t 30 min)?
The value was 102.44%.

For `CN(C)C[C@H]1CCCC[C@]1(O)c1cccc(O)c1.Cl` [HCl-1], which “Release … percent of the substance released” value ([1]; t 2 min) is on record?
The value was 99.16%.

And the “Release … percent of the substance released” value ([1]; t 4 min)?
The value was 99.89%.

What about the “Release … percent of the substance released” value ([1]; t 6 min) of the same compound?
The value was 98.77%.

What about the “Release … percent of the substance released” value ([1]; t 8 min) of the same compound?
The value was 101.08%.

What about the “Release … percent of the substance released” value ([1]; t 10 min) of the same compound?
Its value is 100.57%.

What about the “Release … percent of the substance released” value ([1]; t 12 min) of the same compound?
The value was 100.66%.

And the “Release … percent of the substance released” value ([1]; t 15 min)?
The value was 99.62%.

What about the “Release … percent of the substance released” value ([1]; t 30 min) of the same compound?
Its value is 101.02%.

For `CN(C)C[C@H]1CCCC[C@]1(O)c1cccc(O)c1` [free base, (+)-(1R,2R)-3-[2-(dimethylamino)methyl-1-hydroxycyclohexyl]phenol], which “ΔM Desorption” value ([2]; 1st cycle, RH 0.0 %) is on record?
Its value is 0.00000%.

And the “ΔM Desorption” value ([2]; 1st cycle, RH 10.0 %)?
Its value is 0.00395%.

What about the “ΔM Desorption” value ([2]; 1st cycle, RH 20.0 %) of the same compound?
Its value is 0.00526%.

And the “ΔM Desorption” value ([2]; 1st cycle, RH 30.0 %)?
The value was 0.00526%.

And the “ΔM Desorption” value ([2]; 1st cycle, RH 40.0 %)?
The value was 0.00636%.

And the “ΔM Desorption” value ([2]; 1st cycle, RH 50.0 %)?
The value was 0.00614%.

And the “ΔM Hysteresis” value ([2]; 1st cycle, RH 50.0 %)?
Its value is −0.00241%.

And the “ΔM Sorption” value ([2]; 1st cycle, RH 50.0 %)?
The value was 0.00855%.

What about the “ΔM Desorption” value ([2]; 1st cycle, RH 60.0 %) of the same compound?
Its value is 0.00526%.

And the “ΔM Hysteresis” value ([2]; 1st cycle, RH 60.0 %)?
Its value is −0.00219%.

What about the “ΔM Sorption” value ([2]; 1st cycle, RH 60.0 %) of the same compound?
Its value is 0.00746%.

And the “ΔM Desorption” value ([2]; 1st cycle, RH 70.0 %)?
The value was 0.00395%.

And the “ΔM Hysteresis” value ([2]; 1st cycle, RH 70.0 %)?
The value was 0.00219%.

What about the “ΔM Sorption” value ([2]; 1st cycle, RH 70.0 %) of the same compound?
Its value is 0.00175%.

And the “ΔM Desorption” value ([2]; 1st cycle, RH 80.0 %)?
Its value is 0.00132%.

What about the “ΔM Hysteresis” value ([2]; 1st cycle, RH 80.0 %) of the same compound?
Its value is 0.00592%.

And the “ΔM Sorption” value ([2]; 1st cycle, RH 80.0 %)?
The value was −0.00461%.

And the “ΔM Desorption” value ([2]; 1st cycle, RH 90.0 %)?
The value was −0.01097%.

What about the “ΔM Sorption” value ([2]; 1st cycle, RH 90.0 %) of the same compound?
The value was −0.01097%.

And the “ΔM Desorption” value ([2]; 2nd cycle, RH 0.0 %)?
The value was −0.00461%.

What about the “ΔM Sorption” value ([2]; 2nd cycle, RH 0.0 %) of the same compound?
Its value is 0.00000%.

And the “ΔM Desorption” value ([2]; 2nd cycle, RH 10.0 %)?
Its value is −0.00132%.

What about the “ΔM Hysteresis” value ([2]; 2nd cycle, RH 10.0 %) of the same compound?
Its value is −0.00329%.

What about the “ΔM Sorption” value ([2]; 2nd cycle, RH 10.0 %) of the same compound?
The value was 0.00197%.

What about the “ΔM Desorption” value ([2]; 2nd cycle, RH 20.0 %) of the same compound?
Its value is 0.00044%.

What about the “ΔM Hysteresis” value ([2]; 2nd cycle, RH 20.0 %) of the same compound?
The value was −0.00351%.

And the “ΔM Sorption” value ([2]; 2nd cycle, RH 20.0 %)?
Its value is 0.00395%.

And the “ΔM Desorption” value ([2]; 2nd cycle, RH 30.0 %)?
Its value is 0.00132%.

And the “ΔM Hysteresis” value ([2]; 2nd cycle, RH 30.0 %)?
The value was −0.00395%.

And the “ΔM Sorption” value ([2]; 2nd cycle, RH 30.0 %)?
Its value is 0.00526%.

And the “ΔM Desorption” value ([2]; 2nd cycle, RH 40.0 %)?
The value was 0.00307%.

What about the “ΔM Hysteresis” value ([2]; 2nd cycle, RH 40.0 %) of the same compound?
Its value is −0.00395%.

What about the “ΔM Sorption” value ([2]; 2nd cycle, RH 40.0 %) of the same compound?
The value was 0.00702%.

What about the “ΔM Desorption” value ([2]; 2nd cycle, RH 50.0 %) of the same compound?
Its value is 0.00395%.

And the “ΔM Hysteresis” value ([2]; 2nd cycle, RH 50.0 %)?
Its value is −0.00592%.

What about the “ΔM Sorption” value ([2]; 2nd cycle, RH 50.0 %) of the same compound?
Its value is 0.00987%.

And the “ΔM Desorption” value ([2]; 2nd cycle, RH 60.0 %)?
Its value is 0.00395%.

And the “ΔM Hysteresis” value ([2]; 2nd cycle, RH 60.0 %)?
Its value is −0.00724%.

And the “ΔM Sorption” value ([2]; 2nd cycle, RH 60.0 %)?
The value was 0.01119%.

What about the “ΔM Desorption” value ([2]; 2nd cycle, RH 70.0 %) of the same compound?
The value was 0.00329%.

What about the “ΔM Hysteresis” value ([2]; 2nd cycle, RH 70.0 %) of the same compound?
Its value is −0.00417%.

What about the “ΔM Sorption” value ([2]; 2nd cycle, RH 70.0 %) of the same compound?
Its value is 0.00746%.

What about the “ΔM Desorption” value ([2]; 2nd cycle, RH 80.0 %) of the same compound?
Its value is 0.00132%.

And the “ΔM Hysteresis” value ([2]; 2nd cycle, RH 80.0 %)?
Its value is 0.00197%.

And the “ΔM Sorption” value ([2]; 2nd cycle, RH 80.0 %)?
The value was −0.00066%.

And the “ΔM Desorption” value ([2]; 2nd cycle, RH 90.0 %)?
The value was −0.01031%.

And the “ΔM Sorption” value ([2]; 2nd cycle, RH 90.0 %)?
The value was −0.01031%.

What about the “ΔM Sorption” value ([2]; 3rd cycle, RH 0.0 %) of the same compound?
Its value is −0.00461%.

And the “ΔM Sorption” value ([2]; 3rd cycle, RH 10.0 %)?
The value was −0.0011%.

What about the “ΔM Sorption” value ([2]; 3rd cycle, RH 20.0 %) of the same compound?
The value was 0.00066%.

And the “ΔM Sorption” value ([2]; 3rd cycle, RH 30.0 %)?
Its value is 0.00197%.

What about the “ΔM Sorption” value ([2]; 3rd cycle, RH 40.0 %) of the same compound?
Its value is 0.00461%.

And the “ΔM Sorption” value ([2]; 3rd cycle, RH 50.0 %)?
The value was 0.00768%.
